In article PMC4134938 (Clinical cancer research : an official journal of the …, 2009):
Where two headings read alike, the source gives them in different places.

Tests used:
[1] = 5-FU plasma pharmacokinetics; type: in vivo, human; settings: for AUC / Cmax / Css: plasma 5-FU, mean ± SD
[2] = system: patients with refractory colorectal cancer
[3] = system: patients with refractory colorectal cancer; assay: Toxicity assessment per NCI CTC 3.0; type: in vivo, human
[4] = system: thymidylate synthase (TS); settings: ref [28], [29], cited from earlier work
[5] = Vorinostat serum pharmacokinetics; type: in vivo, human; settings: for AUC / Tmax / half-life / Cmax: human, po
[6] = system: thymidylate synthase (TS); assay: TS tumor expression by immunohistochemistry in paired liver metastasis biopsies; type: in vivo, human; settings: for Change in TS staining intensity (IHC): day 4 vs pre-treatment
[7] = system: metastatic colorectal cancer; assay: Antitumor response by CT; type: in vivo, human; settings: 21 assessable patients, vorinostat + FOLFOX
[8] = system: thymidylate synthase (TS); assay: TS tumor gene expression by RT-PCR in paired biopsies; type: in vivo, human
[9] = read-out: Cmax of vorinostat; single-agent 900 mg/m^2 i.v. over 2 hours x 3 days every 3 weeks; ref [26]; cited from earlier work
[10] = maintenance dose 2400 mg/m^2, vorinostat 100 mg
[11] = maintenance dose 2400 mg/m^2, vorinostat 200 mg
[12] = maintenance dose 2400 mg/m^2, vorinostat 300 mg
[13] = maintenance dose 2400 mg/m^2, vorinostat 400 mg
[14] = DL4 vorinostat 400 mg BID+FOLFOX, 4 patients, all cycles
[15] = all dose levels, 21 patients, vorinostat + FOLFOX
[16] = serum, 100 mg, vorinostat 100 mg PO BID, Day 1, serum, mean
[17] = serum, 200 mg, vorinostat 200 mg PO BID, Day 5 (with FOLFOX), serum, mean
[18] = serum, 300 mg, vorinostat 300 mg PO BID, Day 1, serum, mean
[19] = serum, 300 mg, vorinostat 300 mg PO BID, Day 5 (with FOLFOX), serum, mean
[20] = serum, 400 mg, vorinostat 400 mg PO BID, Day 1, serum, mean
[21] = serum, 400 mg, vorinostat 400 mg PO BID, Day 5 (with FOLFOX), serum, mean

**Q.** What does the source list for O=c1[nH]cc(F)c(=O)[nH]1 [5-FU, 5-Fluorouracil]?
**A.** AUC [1, 10]: 15.3 ± 5.7 ηg*hr/mL; Cmax [1, 10]: 5.03 ± 4.39 ηg/mL; Css [1, 10]: 0.287 ± 0.044 ηg/mL; AUC [1, 11]: 24 ± 9.11 ηg*hr/mL; Cmax [1, 11]: 13.1 ± 7.96 ηg/mL; Css [1, 11]: 0.274 ± 0.045 ηg/mL; AUC [1, 12]: 68.7 ± 88.1 ηg*hr/mL; Cmax [1, 12]: 24.5 ± 14.5 ηg/mL; Css [1, 12]: 0.396 ± 0.159 ηg/mL; AUC [1, 13]: 46.7 ± 10.6 ηg*hr/mL; Cmax [1, 13]: 26.8 ± 11.4 ηg/mL; Css [1, 13]: 0.432 ± 0.077 ηg/mL; median 5-FU Css ([1]; vorinostat 100 mg BID dose group): 3000 ng/mL; Median 5-FU AUC ([1]; vorinostat 100 mg dose group): 14000 ng·h/mL; median 5-FU Css ([1]; vorinostat 200 mg BID dose group): 16000 ng/mL; Median 5-FU AUC ([1]; vorinostat 200 mg dose group): 26000 ng·h/mL; median 5-FU Css ([1]; vorinostat 300 mg BID dose group): 20000 ng/mL; Median 5-FU AUC ([1]; vorinostat 300 mg dose group): 35000 ng·h/mL; median 5-FU Css ([1]; vorinostat 400 mg BID dose group): 23000 ng/mL; Median 5-FU AUC ([1]; vorinostat 400 mg dose group): 44000 ng·h/mL

**Q.** Which “Patients with DLT” value ([2]; DL1 vorinostat 100 mg PO BID + FOLFOX, 3 evaluable patients, cycle 1) does the source give for O=C(CCCCCCC(=O)Nc1ccccc1)NO [vorinostat, Suberoylanilide Hydroxamic Acid] here?
**A.** None

**Q.** What about the “Patients with DLT” value ([2]; DL2 vorinostat 200 mg PO BID + FOLFOX, 3 patients, cycle 1) of the same molecule?
**A.** without any DLT

**Q.** And the “Patients with DLT (fatigue, anorexia, dehydration)” value ([2]; DL3 vorinostat 300 mg PO BID + FOLFOX, evaluable patients, cycle 1)?
**A.** One of 10

**Q.** What about the Tolerability of dose-level ([2]; DL4 vorinostat 400 mg PO BID + FOLFOX) of the same molecule?
**A.** intolerable

**Q.** And the “Patients with DLT (grade 3 fatigue; grade 3 diarrhea in one)” value ([2]; DL4 vorinostat 400 mg PO BID + FOLFOX, cycle 1)?
**A.** 2 of 4

**Q.** And the “MTD of vorinostat in combination with FOLFOX” value ([2]; x 1 week every two weeks, FOLFOX on days 4 and 5)?
**A.** 300 mg PO BID

**Q.** What about the “Neutropenia G3 (patients)” value [3, 14] of the same molecule?
**A.** 2

**Q.** And the “Thrombocytopenia G4 (patients)” value [3, 14]?
**A.** 2

**Q.** What about the “Grade 3-4 thrombocytopenia (patients)” value [3, 15] of the same molecule?
**A.** 5

**Q.** And the “Grade 3-4 thrombocytopenia (share of patients)” value [3, 15]?
**A.** 24%

**Q.** What about the “Down-regulation of TS expression” value ([4]; in vitro and in vivo models, Q-PCR analysis) of the same molecule?
**A.** ≤ 100 fold

**Q.** And the “Vorinostat concentration required for effective TS down-regulation” value ([4]; pre-clinical studies, 24 hours of vorinostat exposure)?
**A.** ≥ 5 µM

**Q.** And the AUC [5, 16]?
**A.** 2.5 µM·h

**Q.** What about the Tmax [5, 16] of the same molecule?
**A.** 2.4 h

**Q.** And the half-life ([5]; serum, 100 mg, t1/2, vorinostat 100 mg PO BID, Day 1, serum, mean)?
**A.** 1.5 h

**Q.** And the AUC ([5]; serum, 200 mg, vorinostat 200 mg PO BID, Day 1, serum, mean)?
**A.** 1.9 µM·h

**Q.** What about the AUC [5, 17] of the same molecule?
**A.** 3.3 µM·h

**Q.** What about the Cmax ([5]; serum, 200 mg, Cmax, vorinostat 200 mg PO BID, Day 1, serum, mean) of the same molecule?
**A.** 816 nM

**Q.** What about the Cmax ([5]; serum, 200 mg, Cmax, vorinostat 200 mg PO BID, Day 5 (with FOLFOX), serum, mean) of the same molecule?
**A.** 894 nM

**Q.** What about the Tmax [5, 17] of the same molecule?
**A.** 2.7 h

**Q.** And the half-life ([5]; serum, 200 mg, t1/2, vorinostat 200 mg PO BID, Day 1, serum, mean)?
**A.** 1.2 h

**Q.** What about the AUC [5, 18] of the same molecule?
**A.** 4.4 µM·h

**Q.** What about the AUC [5, 19] of the same molecule?
**A.** 6.8 µM·h

**Q.** And the Cmax ([5]; serum, 300 mg, Cmax, vorinostat 300 mg PO BID, Day 1, serum, mean)?
**A.** 1460 nM

**Q.** What about the Cmax ([5]; serum, 300 mg, Cmax, vorinostat 300 mg PO BID, Day 5 (with FOLFOX), serum, mean) of the same molecule?
**A.** 950 nM

**Q.** And the Tmax [5, 18]?
**A.** 1.6 h

**Q.** And the Tmax [5, 19]?
**A.** 2.4 h

**Q.** What about the half-life ([5]; serum, 300 mg, t1/2, vorinostat 300 mg PO BID, Day 1, serum, mean) of the same molecule?
**A.** 2.3 h

**Q.** And the half-life ([5]; serum, 300 mg, t1/2, vorinostat 300 mg PO BID, Day 5 (with FOLFOX), serum, mean)?
**A.** 2.3 h

**Q.** And the AUC [5, 20]?
**A.** 4.5 µM·h

**Q.** What about the AUC [5, 21] of the same molecule?
**A.** 7.4 µM·h

**Q.** And the Cmax ([5]; serum, 400 mg, Cmax, vorinostat 400 mg PO BID, Day 1, serum, mean)?
**A.** 1510 nM

**Q.** And the Cmax ([5]; serum, 400 mg, Cmax, vorinostat 400 mg PO BID, Day 5 (with FOLFOX), serum, mean)?
**A.** 1480 nM

**Q.** What about the Tmax [5, 20] of the same molecule?
**A.** 1.9 h

**Q.** And the Tmax [5, 21]?
**A.** 2.8 h

**Q.** And the half-life ([5]; serum, 400 mg, t1/2, vorinostat 400 mg PO BID, Day 1, serum, mean)?
**A.** 3.7 h

**Q.** And the half-life ([5]; serum, 400 mg, t1/2, vorinostat 400 mg PO BID, Day 5 (with FOLFOX), serum, mean)?
**A.** 2.2 h

**Q.** And the Cmax ([5]; serum, Cmax of vorinostat, at all dose levels (100-400 mg PO BID))?
**A.** < 2000 nM

**Q.** And the CLapp ([5]; vorinostat 100 mg PO BID, Day 1, serum, mean)?
**A.** 189 L/h

**Q.** What about the CLapp ([5]; vorinostat 100 mg PO BID, Day 5 (with FOLFOX), serum, mean) of the same molecule?
**A.** 202 L/h

**Q.** What about the CLapp ([5]; vorinostat 200 mg PO BID, Day 1, serum, mean) of the same molecule?
**A.** 400 L/h

**Q.** What about the CLapp ([5]; vorinostat 200 mg PO BID, Day 5 (with FOLFOX), serum, mean) of the same molecule?
**A.** 231 L/h

**Q.** What about the CLapp ([5]; vorinostat 300 mg PO BID, Day 1, serum, mean) of the same molecule?
**A.** 285 L/h

**Q.** And the CLapp ([5]; vorinostat 300 mg PO BID, Day 5 (with FOLFOX), serum, mean)?
**A.** 225 L/h

**Q.** And the CLapp ([5]; vorinostat 400 mg PO BID, Day 1, serum, mean)?
**A.** 345 L/h

**Q.** What about the CLapp ([5]; vorinostat 400 mg PO BID, Day 5 (with FOLFOX), serum, mean) of the same molecule?
**A.** 211 L/h

**Q.** And the “Change in vorinostat Clapp, day 5 compared to day 1” value ([5]; within patients, 14 patients, p=0.003)?
**A.** significant decrease

**Q.** And the “Change in vorinostat AUC, day 5 compared to day 1” value ([5]; within patients, 14 patients, p=0.005)?
**A.** significant increase

**Q.** What about the “Change in vorinostat Tmax, day 5 compared to day 1” value ([5]; within patients, 19 patients, p=0.02) of the same molecule?
**A.** statistically significant increase

**Q.** What about the “Patients with no change in TS staining pattern (IHC)” value ([6]; 6 paired samples, pre-treatment vs 4th day of vorinostat, cycle 1) of the same molecule?
**A.** 4

**Q.** And the “Change in TS staining intensity (IHC)” value ([6]; one patient at DL1 (vorinostat 100 mg PO BID))?
**A.** decreased intensity from strong to weak

**Q.** What about the “Change in TS staining intensity (IHC)” value ([6]; one patient at DL4 (vorinostat 400 mg PO BID)) of the same molecule?
**A.** increase in intensity from weak to strong

**Q.** What about the Objective response [7] of the same molecule?
**A.** No patient developed an objective response

**Q.** What about the “Patients with confirmed stable disease” value [7] of the same molecule?
**A.** 5

**Q.** What about the “Patients with stable disease on 2-month staging CT scan” value [7] of the same molecule?
**A.** Eleven

**Q.** And the “Patients without any change in TS expression (RT-PCR)” value ([8]; 6 patients with paired biopsies)?
**A.** four

**Q.** What about the “Patients with down-regulation of TS (RT-PCR)” value ([8]; paired tumor biopsies, day 4 of vorinostat vs pre-treatment (DL1 and DL4)) of the same molecule?
**A.** 2 of 6

**Q.** What about the “Decrease in TS gene expression” value ([8]; patient at DL1 (vorinostat 100 mg PO BID)) of the same molecule?
**A.** ~50%

**Q.** And the “TS gene expression relative to β-actin” value ([8]; patient at DL1, before vorinostat)?
**A.** 0.92

**Q.** What about the “TS gene expression relative to β-actin” value ([8]; patient at DL1, following vorinostat treatment) of the same molecule?
**A.** 0.45

**Q.** And the “Decrease in TS gene expression” value ([8]; patient at DL4 (vorinostat 400 mg PO BID))?
**A.** approximately 33%

**Q.** What about the “TS gene expression relative to β-actin” value ([8]; patient at DL4, before vorinostat) of the same molecule?
**A.** 2.27

**Q.** What about the “TS gene expression relative to β-actin” value ([8]; patient at DL4, following vorinostat treatment) of the same molecule?
**A.** 1.58

**Q.** What about the Cmax [9] of the same molecule?
**A.** > 20000 nM
